The structures appear in SMILES notation. Read-outs that look alike come from different tables or passages of the source. Some results are limits rather than exact numbers.

Data set [1] concerns male cynomolgus monkeys. Nature of the data set: Insulin secretion promoting and blood glucose lowering effects after intravenous glucose. It is filed as in vivo, cynomolgus monkey. How it is done: Next, a 50% glucose solution (glucose administration weight to the monkey: 0.5 g/kg) was intravenously administered and a blood sample was collected every 5 min or 10 min to measure the plasma insulin and glucose concentrations. The area under the curve was calculated from the time course of each parameter after the drug administration to evaluate the insulin secretion promoting effect and the blood glucose lowering effect.

The subject of data set [2] is male cynomolgus monkeys. The class given is in vivo, cynomolgus monkey.
A short description of data set [3]: Pharmacokinetics after oral administration. The class given is in vivo, cynomolgus monkey. Particulars: for Cmax / Tmax / AUC(0-t): male, cynomolgus monkey, plasma, calcium salt hydrate crystal (Sample 162a) suspension, n=2; for AUC(0-t): read-out: AUC0-24 h. How it is done: The plasma concentrations of the drug were determined by liquid chromatography tandem-mass spectrometry. The lower limit of quantification was 0.3 ng/mL.

For a further data set, the target named is human GLP1R (Homo sapiens (Human), UniProt P43220). The data set is described as follows: In vitro cAMP signal activation in human GLP1R stably-expressing cell line (hGLP1R-HEK293). Particulars: cAMP concentration in hGLP1R-HEK293; 100% = 1 nM human GLP-1 (7-37). The class given is cell-based.
Setting [4] is: continuous i.v. 40 min, steady-state plasma concentration 0.94 to 4.8 nmol/L, then i.v. glucose 0.5 g/kg, vs vehicle.

Chain of human GLP1R (P43220 24-463): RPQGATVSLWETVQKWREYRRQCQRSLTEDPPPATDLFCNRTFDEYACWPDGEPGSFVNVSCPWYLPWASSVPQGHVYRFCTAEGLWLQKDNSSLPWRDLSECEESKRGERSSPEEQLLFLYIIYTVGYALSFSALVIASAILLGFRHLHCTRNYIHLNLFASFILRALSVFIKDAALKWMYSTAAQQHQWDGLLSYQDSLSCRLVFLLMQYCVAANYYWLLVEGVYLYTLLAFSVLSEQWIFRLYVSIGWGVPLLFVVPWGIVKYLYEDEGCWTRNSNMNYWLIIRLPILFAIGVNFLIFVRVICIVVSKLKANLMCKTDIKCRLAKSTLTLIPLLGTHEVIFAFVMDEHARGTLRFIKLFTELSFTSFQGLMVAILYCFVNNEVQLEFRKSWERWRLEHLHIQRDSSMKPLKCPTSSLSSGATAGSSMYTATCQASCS

By Cmax is commonly meant the highest concentration seen after dosing. One may read the Tmax as the time from dosing to the highest level. Regarding `Cc1cc(-n2nc3c(c2-n2ccn(-c4ccc5c(cnn5C)c4F)c2=O)[C@H](C)N(C(=O)c2cc4cc([C@H]5CCOC(C)(C)C5)ccc4n2[C@@]2(c4noc(=O)[nH]4)C[C@@H]2C)CC3)cc(C)c1F` [Example Compound 67, 3-[(1S,2S)-1-[5-[(4S)-2,2-dimethyloxan-4-yl]-2-[(4S)-2-(4-fluoro-3,5-dimethylphenyl)-3-[3-(4-fluoro-1-methylindazol-5-yl)-2-oxoimidazol-1-yl]-4-methyl-6,7-dihydro-4H-pyrazolo[4,3-c]pyridine-5-carbonyl]indol-1-yl]-2-methylcyclopropyl]-4H-1,2,4-oxadiazol-5-one], in the data set with male cynomolgus monkeys [1] (setting [4]), the “area under the curve of insulin” value is recorded as “increase in the area under the curve of insulin” and the “area under the curve of plasma glucose” value was “decrease in the area under the curve of plasma glucose”. Besides, the “plasma concentration at which insulin secretion promoting and blood glucose lowering effects are equivalent to exenatide” value in the data set with male cynomolgus monkeys [1] (steady-state plasma concentration, i.v. infusion) was ≥ 1.6 nmol/L. Further, in the data set on male cynomolgus monkeys [2] (oral 0.05 or 0.1 mg/kg vs exenatide s.c. 0.3 or 0.6 μg/kg), the “degree of suppression of food intake compared with control drug” value is on record as “almost equivalent to the control drug exenatide”. For the same compound, the food intake entry with male cynomolgus monkeys [2] (oral, 5 consecutive days, 0.05 or 0.1 mg/kg, food intake for 90 min from 3 h after administration) is on record as “suppressed the food intake in a dosage dependent manner”. For the same compound, the “time after oral administration at which plasma concentrations reached Cmax” value in data set [3] (all dosages (0.05, 0.15, 0.45 and 1.35 mg/kg), oral) is 2 h. Also, in data set [3] (0.05 mg/kg oral), the Cmax is 4.78 ng/mL, the Tmax was 2 h and the AUC(0-t) worked out at 23.7 ng·h/mL. In addition, in data set [3] (0.15 mg/kg oral), the Cmax turned out to be 20.7 ng/mL, the Tmax was 2 h and the AUC(0-t) stood at 135 ng·h/mL. In addition, in data set [3] (0.45 mg/kg oral), the Cmax is 32 ng/mL, the Tmax amounted to 2 h and the AUC(0-t) came to 208 ng·h/mL. Also, in data set [3] (1.35 mg/kg oral), the Cmax is 148 ng/mL, the Tmax was found to be 2 h and the AUC(0-t) was found to be 1040 ng·h/mL. For the same compound, in data set [3] (oral 0.05 to 1.35 mg/kg), the “absorption in the intestinal tract and elimination” value was “dose-proportionally absorbed in the intestinal tract and eliminated”.

As usually defined, the EC50 is the concentration needed to bring the measured effect to its halfway point. The low end stands for greater potency, the high end for weaker potency. `CCc1nccc(-c2ccc3c(c2)cc(C(=O)N2CCc4nn(-c5cc(C)c(F)c(C)c5)c(-n5ccn(-c6ccc7c(cnn7C)c6)c5=O)c4[C@@H]2C)n3[C@@]2(c3noc(=O)[nH]3)C[C@@H]2C)c1C` [compound 73, 3-[(1S,2S)-1-[5-(2-ethyl-3-methylpyridin-4-yl)-2-[(4S)-2-(4-fluoro-3,5-dimethylphenyl)-4-methyl-3-[3-(1-methylindazol-5-yl)-2-oxoimidazol-1-yl]-6,7-dihydro-4H-pyrazolo[4,3-c]pyridine-5-carbonyl]indol-1-yl]-2-methylcyclopropyl]-4H-1,2,4-oxadiazol-5-one] yielded an EC50 at human GLP1R of 2.5 nM.

For `COc1nccc(-c2cc3cc(C(=O)N4CCc5nn(-c6cc(C)c(F)c(C)c6)c(-n6ccn(-c7ccc8c(cnn8C)c7)c6=O)c5[C@@H]4C)n([C@@]4(c5noc(=O)[nH]5)C[C@@H]4C)c3cc2F)c1C` [compound 74, 3-[(1S,2S)-1-[6-Fluoro-2-[(4S)-2-(4-fluoro-3,5-dimethylphenyl)-4-methyl-3-[3-(1-methylindazol-5-yl)-2-oxoimidazol-1-yl]-6,7-dihydro-4H-pyrazolo[4,3-c]pyridine-5-carbonyl]-5-(2-methoxy-3-methylpyridin-4-yl)indol-1-yl]-2-methylcyclopropyl]-4H-1,2,4-oxadiazol-5-one], a half-maximal response at human GLP1R (EC50) required 6.2 nM.

Consider `Cc1cc(-n2nc3c(c2-n2ccn(-c4ccc5c(cnn5C)c4)c2=O)CN(C(=O)c2cc4cc(C5CCOC6(CCCC6)C5)ccc4n2[C@@]2(c4noc(=O)[nH]4)C[C@@H]2C)CC3)cc(C)c1F` (stereo partly drawn) [compound 75, 3-[(1S,2S)-1-[2-[2-(4-fluoro-3,5-dimethylphenyl)-3-[3-(1-methylindazol-5-yl)-2-oxoimidazol-1-yl]-6,7-dihydro-4H-pyrazolo[4,3-c]pyridine-5-carbonyl]-5-(6-oxaspiro[4.5]decan-9-yl)indol-1-yl]-2-methylcyclopropyl]-4H-1,2,4-oxadiazol-5-one], for which the EC50 at human GLP1R stood at 6.2 nM.

The compound `COCCn1ncc2cc(-n3ccn(-c4c5c(nn4-c4cc(C)c(F)c(C)c4)CCN(C(=O)c4cc6cc(C7CCOC(C)(C)C7)ccc6n4[C@@]4(c6noc(=O)[nH]6)C[C@@H]4C)C5)c3=O)ccc21` (stereo partly drawn) [compound 76, 3-[(1S,2S)-1-[5-(2,2-dimethyloxan-4-yl)-2-[2-(4-fluoro-3,5-dimethylphenyl)-3-[3-[1-(2-methoxyethyl)indazol-5-yl]-2-oxoimidazol-1-yl]-6,7-dihydro-4H-pyrazolo[4,3-c]pyridine-5-carbonyl]indol-1-yl]-2-methylcyclopropyl]-4H-1,2,4-oxadiazol-5-one] displayed an EC50 on human GLP1R of 2.4 nM.

In the case of `CC[C@H]1C[C@@H](c2ccc3c(c2)cc(C(=O)N2CCc4nn(-c5cc(C)c(F)c(C)c5)c(-n5ccn(-c6ccc7c(cnn7C)c6)c5=O)c4C2)n3[C@@]2(c3noc(=O)[nH]3)C[C@@H]2C)CCO1` [compound 77], on human GLP1R, the EC50 worked out at 1.4 nM.

The compound `CC[C@H]1C[C@]1(c1noc(=O)[nH]1)n1c(C(=O)N2CCc3nn(-c4cc(C)c(F)c(C)c4)c(-n4ccn(-c5ccc6c(cnn6C)c5)c4=O)c3C2)cc2cc(C3CCOCC3)ccc21` [compound 78, 3-[(1S,2S)-2-Ethyl-1-[2-[2-(4-fluoro-3,5-dimethylphenyl)-3-[3-(1-methylindazol-5-yl)-2-oxoimidazol-1-yl]-6,7-dihydro-4H-pyrazolo[4,3-c]pyridine-5-carbonyl]-5-(oxan-4-yl)indol-1-yl]cyclopropyl]-4H-1,2,4-oxadiazol-5-one] displayed an EC50 on human GLP1R of 3.6 nM.

Regarding `Cc1cc(-n2nc3c(c2-n2ccn(-c4ccc5c(cnn5C)c4)c2=O)CN(C(=O)c2cc4cc(C5CCOCC5)ccc4n2[C@@]2(c4noc(=O)[nH]4)C[C@@H]2CO)CC3)cc(C)c1F` [compound 79, 3-[(1S,2S)-1-[2-[2-(4-fluoro-3,5-dimethylphenyl)-3-[3-(1-methylindazol-5-yl)-2-oxoimidazol-1-yl]-6,7-dihydro-4H-pyrazolo[4,3-c]pyridine-5-carbonyl]-5-(oxan-4-yl)indol-1-yl]-2-(hydroxymethyl)cyclopropyl]-4H-1,2,4-oxadiazol-5-one], the response at human GLP1R was half-maximal at 2.4 nM (EC50).

`Cc1cc(-n2nc3c(c2-n2ccn(-c4ccc5c(cnn5C)c4)c2=O)[C@H](C)N(C(=O)c2cc4cc(C5CCOCC5)ccc4n2[C@@]2(c4noc(=O)[nH]4)C[C@@H]2C)[C@H](C)C3)cc(C)c1F` [compound 80, 3-[(1S,2S)-1-[2-[(4S,6R)-2-(4-fluoro-3,5-dimethylphenyl)-4,6-dimethyl-3-[3-(1-methylindazol-5-yl)-2-oxoimidazol-1-yl]-6,7-dihydro-4H-pyrazolo[4,3-c]pyridine-5-carbonyl]-5-(oxan-4-yl)indol-1-yl]-2-methylcyclopropyl]-4H-1,2,4-oxadiazol-5-one]: at human GLP1R, a half-maximal response (EC50) required 2.4 nM.
